Data published in article PMC8190080, “Tanshinones induce tumor cell apoptosis via directly targeting FHIT” (Scientific Reports, 2021).

Assays:
FHIT = target: T1, FHIT (Homo sapiens, UniProt P49789); assay: MST assay, purified Red-NHS labeled FHIT; format: binding
T1 construct: GST (N, cleaved yes); made in house; host or cells: E. coli BL21 (DE3)
Method: The gene encoding human FHIT (P49789) was synthesized (Genscript, China) and cloned into pGEX-6P-1 such that the expressed protein would have an N-terminal glutathione S-transferase (GST)-tagged protein. The construct was transformed into expression host E.coli BL21 (DE3), and cells were grown in LB medium at 37 °C until the OD600 reached 0.6. The cells were then induced by adding 0.1 mM isopropyl-β-D-l-thiogalactopyranoside (IPTG) and grown at 18 °C overnight. Cells were harvested by centrifugation. The cell pellet was resuspended in a buffer containing 20 mM Tris (pH 7.5), 500 mM NaCl, and 2 mM DTT and lysed by sonication. After centrifugation, the clarified cell lysate was incubated with glutathione-sepharose 4B beads, and GST-tagged FHIT was eluted with the buffer consisting of 50 mM reduced glutathione. […]
Ten million 293 cells overexpressing GFP-tagged FHIT or free GFP were lysed in 0.5 mL M-PER mammalian protein extraction reagent (Thermo Fisher Scientific). […] The fluorescence signal during the thermophoresis was monitored and the change in fluorescence was analyzed by software. The Kd was calculated by fitting a standard binding curve to the series diluted ligands. And data were analyzed by GraphPad Prism 7.0.

FHIT truncation TR1 = FHIT truncation TR1 (Homo sapiens, UniProt P49789); assay: Cellular MST assay, GFP tagged FHIT truncation TR1; format: binding
Method: Ten million 293 cells overexpressing GFP-tagged FHIT or free GFP were lysed in 0.5 mL M-PER mammalian protein extraction reagent (Thermo Fisher Scientific). Cell lysates were diluted in PBS buffer to a final concentration at which the fluorescent signals of the GFP proteins were suitable for the detection of the Monolith NT.115 instrument (NanoTemper Technologies). A single point screening assay was developed against GFP-FHIT protein to find potential binding molecules from compound libraries (L1021,APExBIO). For binding affinity detection, a 10µL protein sample was mixed with 10µL ligand at various concentrations as indicated. And the purified proteins were labeled by Red- NHS kit in accordance with the manufacturer’s protocol (MO-L011, NanoTemper Technologies). Then the mixture solutions were loaded into NT.115 standard coated capillaries or premium coated capillaries (NanoTemper Technologies), and the MST measurements were performed at 25 °C. The fluorescence signal during the thermophoresis was monitored and the change in fluorescence was analyzed by software. The Kd was calculated by fitting a standard binding curve to the series diluted ligands. And data were analyzed by GraphPad Prism 7.0.

ENPP1 [1] = target: T2, ENPP1 (Homo sapiens, UniProt P22413); assay: ENPP1 hydrolase activity detection assay (Ap3A, ADP-Glo); format: biochemical; conditions: ENPP1 4 ng/µl, 4 µM Ap3A
T2 sequence (P22413 1-925): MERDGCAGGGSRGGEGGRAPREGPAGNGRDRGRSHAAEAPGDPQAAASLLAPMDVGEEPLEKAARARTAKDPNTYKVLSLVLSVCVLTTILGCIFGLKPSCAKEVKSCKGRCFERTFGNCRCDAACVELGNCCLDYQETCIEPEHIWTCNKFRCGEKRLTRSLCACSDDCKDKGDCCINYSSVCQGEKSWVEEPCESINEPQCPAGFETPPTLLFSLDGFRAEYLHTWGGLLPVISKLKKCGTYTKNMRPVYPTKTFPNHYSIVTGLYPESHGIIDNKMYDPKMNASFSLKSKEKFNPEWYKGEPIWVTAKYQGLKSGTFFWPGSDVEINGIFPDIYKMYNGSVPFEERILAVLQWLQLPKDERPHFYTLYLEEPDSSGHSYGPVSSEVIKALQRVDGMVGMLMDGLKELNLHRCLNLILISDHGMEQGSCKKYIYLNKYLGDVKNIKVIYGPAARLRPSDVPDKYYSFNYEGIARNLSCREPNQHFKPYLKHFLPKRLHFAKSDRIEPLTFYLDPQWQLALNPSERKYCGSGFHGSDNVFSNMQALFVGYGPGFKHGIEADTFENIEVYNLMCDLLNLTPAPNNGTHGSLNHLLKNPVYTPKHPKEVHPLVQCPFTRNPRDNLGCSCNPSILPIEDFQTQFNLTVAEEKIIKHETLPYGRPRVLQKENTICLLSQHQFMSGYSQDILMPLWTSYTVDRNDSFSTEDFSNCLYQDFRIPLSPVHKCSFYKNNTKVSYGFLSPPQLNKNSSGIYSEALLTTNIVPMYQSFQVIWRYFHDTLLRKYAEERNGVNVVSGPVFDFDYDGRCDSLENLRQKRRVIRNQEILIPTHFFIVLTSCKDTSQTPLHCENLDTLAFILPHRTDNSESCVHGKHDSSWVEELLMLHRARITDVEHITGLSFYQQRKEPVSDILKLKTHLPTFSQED
Method: ENPP1 protein (4ng/µl) was mixed with series diluted compounds as indicated in assay buffer (50mM Tris-HCl, 2mM CaCl2, 2mM MgCl2, pH9.0) in a final DMSO concentration of 1% in a total volume of 20μL. The mixtures were incubated for 30min at 25°C, then 4µM Ap3A was added. After incubation at 25°C for 10min, ENPP1 should be inactivated at 85°C for 5min.
Then the production of ADP in the reaction system was detected by ADP-Glo reagent (V6930, Promega) according to the manufacturer’s protocol in 384-well. Luminescence was read by spark (TECAN), an integration time of 1 second per well. And the data were analyzed by

ENPP1 [2] = target: T2, ENPP1; assay: MST assay, ENPP1; format: binding
DCPS = target: T3, DCPS (Homo sapiens, UniProt Q96C86); assay: MST assay, purified DCPS; format: binding
T3 construct: 6xHis (N); made in house; host or cells: E. coli BL21(DE3)
T3 sequence (Q96C86 1-337): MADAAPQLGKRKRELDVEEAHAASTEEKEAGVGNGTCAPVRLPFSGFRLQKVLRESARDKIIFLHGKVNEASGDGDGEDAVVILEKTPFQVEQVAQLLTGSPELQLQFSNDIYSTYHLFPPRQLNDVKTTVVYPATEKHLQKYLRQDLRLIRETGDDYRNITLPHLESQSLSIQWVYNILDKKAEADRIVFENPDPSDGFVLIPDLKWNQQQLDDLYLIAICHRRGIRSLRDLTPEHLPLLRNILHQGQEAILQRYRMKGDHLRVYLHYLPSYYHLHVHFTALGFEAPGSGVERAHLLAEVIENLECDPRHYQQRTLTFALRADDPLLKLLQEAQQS

T1 sequence (P49789 whole entry): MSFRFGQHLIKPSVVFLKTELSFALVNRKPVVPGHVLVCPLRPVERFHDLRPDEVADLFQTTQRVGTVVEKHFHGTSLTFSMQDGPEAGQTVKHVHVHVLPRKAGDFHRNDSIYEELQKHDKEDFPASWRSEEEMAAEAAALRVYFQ
Sequence of FHIT truncation TR1 (P49789 2-109): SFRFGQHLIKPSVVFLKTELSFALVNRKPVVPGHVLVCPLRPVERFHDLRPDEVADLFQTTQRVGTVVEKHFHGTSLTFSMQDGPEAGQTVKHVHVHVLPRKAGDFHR

Cc1c(S(=O)(=O)O)oc2c1C(=O)C(=O)c1c-2ccc2c1CCCC2(C)C [STS, Sodium tanshinone IIA sulfonate]
Kd (FHIT; FHIT purified from E.coli, Red-NHS labeled, MST): 1.82 ± 0.3 µM | binding affinity of purified FHIT, times lower than cellular FHIT (FHIT; purified FHIT vs cellular GFP-FHIT): 5 | Kd (FHIT truncation TR1): 75.1 µM | IC50 (ENPP1 [1]): 57.9 ± 15.1 µM | Kd (ENPP1 [2]): 27.2 ± 1.96 µM | Kd (DCPS): 9.31 ± 0.4 µM
